Patent publication US20240174690A1, “ANNULATED 2-AMINO-3-CYANO THIOPHENES AND DERIVATIVES FOR THE TREATMENT OF CANCER” (BOEHRINGER INGELHEIM INTERNATIONAL GMBH, priority 2021, published 2024)

Columns and labels:
KRAS (G12C)::SOS1 = KRAS (G12C)::SOS1 (Homo sapiens (Human), UniProt P01116, C118S/C51S/C80L/G12C); assay: KRAS::SOS1 AlphaScreen binding assay, KRAS G12C
In short: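 AlphaScreen measurement of compound disruption of biotinylated, GDP-loaded KRAS 1-169 (10 nM; G12C 7.5 nM) binding to GST-SOS1 564-1049 (5 nM with G12D/G12C, 10 nM otherwise), with 10 μM GDP in PBS/0.1% BSA/0.05% Tween 20. Timing was 30 min compound preincubation, then 60 min with beads at room temperature; top concentration 100 μM, 4-parameter IC50.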

KRAS (WT)::SOS1 = KRAS (WT)::SOS1 (Homo sapiens (Human), UniProt P01116, C118S); assay: KRAS::SOS1 AlphaScreen binding assay, KRAS WT
KRAS (WT)::SOS1, sequence (P01116 other isoform, or with tags, fused parts or gaps C118S): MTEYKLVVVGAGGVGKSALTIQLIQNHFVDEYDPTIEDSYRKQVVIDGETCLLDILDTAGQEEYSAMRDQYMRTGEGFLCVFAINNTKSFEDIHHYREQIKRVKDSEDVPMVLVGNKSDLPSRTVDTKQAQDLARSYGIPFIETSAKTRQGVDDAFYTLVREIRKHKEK
Description: This assay can be used to examine the potency with which compounds according to the invention binding to (mutated) KRAS inhibit the protein-protein interaction between SOS1 and (mutated) KRAS e.g., KRAS WT, KRAS G12C, KRAS G12D, KRAS G12V, KRAS G13D. […] Low IC50 values in this assay setting are indicative of strong inhibition of protein-protein interaction between SOS1 and KRAS:
These assays measure the inhibitory effect of compounds on KRAS mutant protein-protein interactions using the Alpha Screen technology by Perkin Elmer.
The following (mutant) enzyme forms of KRAS and interacting proteins are used in these assays at the given concentrations: • KRAS (G12D) 1-169, N-terminal 6His-tag, C-terminal avi-tag (Xtal BioStructures, Inc.); final assay concentration 10 nM and SOS1 564-1049, N-terminal 229 GST-tag, TEV cleavage site (Viva Biotech Ltd); final assay concentration 5 nM; • KRAS (G12C) 1-169, N-terminal 6His-tag for purification, cleaved off, C-terminal avi-tag, biotinylated, mutations: C51S, C80L, C118S (in house); final assay concentration 7.5 nM and SOS1 564-1049, N-terminal 229 GST-tag, TEV cleavage site (Viva Biotech Ltd); final assay concentration 5 nM; • KRAS (G12V) 1-169, N-terminal 6His-tag for purification, cleaved off, C-terminal avi-tag, biotinylated, TEV cleavage site, mutation: C118S, GDP loaded (in house); final assay concentration 10 nM and SOS1 564-1049, N-terminal 229 GST-tag, TEV cleavage site (Viva Biotech Ltd); final assay concentration 10 nM; • KRAS (G13D) 1-169, N-terminal 6His-tag for purification, cleaved off, C-terminal avi-tag, biotinylated, TEV cleavage site, mutation: C118S, GDP loaded (in house); final assay concentration 10 nM and SOS1 564-1049, N-terminal 229 GST-tag, TEV cleavage site (Viva Biotech Ltd); final assay concentration 10 nM; • KRAS (WT) 1-169, N-terminal 6His-tag for purification, cleaved off, C-terminal avi-tag, biotinylated, TEV cleavage site, mutation: C118S, GDP loaded (in house); final assay concentration 10 nM and SOS1 564-1049, N-terminal 229 GST-tag, TEV cleavage site (Viva Biotech Ltd); final assay concentration 10 nM.
Test compounds dissolved in DMSO are dispensed onto assay plates (Proxiplate 384 PLUS, white, PerkinElmer; 6008289) using an Access Labcyte Workstation with the Labcyte Echo 55×. For the chosen highest assay concentration of 100 μM, 150 nL of compound solution are transferred from a 10 mM DMSO compound stock solution. A series of eleven fivefold dilutions per compound are transferred to the assay plate, compound dilutions are tested in duplicates. DMSO are added as backfill to a total volume of 150 nL.
The assays run on a fully automated robotic system in a darkened room below 100 Lux. To 150 nl of compound dilution 10 μl of a mix including KRAS mutant protein, SOS1 (final assay concentrations see above) and GDP nucleotide (Sigma G7127; final assay concentration 10 μM) in assay buffer (1×PBS, 0.1% BSA, 0.05% Tween 20) are added into columns 1-24.
After 30 minutes incubation time 5 μl of Alpha Screen bead mix in assay buffer are added into columns 1-23. Bead mix consists of AlphaLISA Glutathione Acceptor Beads (PerkinElmer, Cat No AL109) and AlphaScreen Streptavidin Donor Beads (PerkinElmer Cat No 6760002) in assay buffer at a final assay concentration of 10 μg/ml each.
Plates are kept at room temperature in a darkened incubator. After an additional 60 minutes incubation time the signal is measured in a PerkinElmer Envision HTS Multilabel Reader using the AlphaScreen specs from PerkinElmer.
Each plate contains up to 16 wells of a negative control depending on the dilution procedure (platewise or serial) (DMSO instead of test compound; with KRAS mutant::SOS1 GDP mix and bead mix; column 23) and 16 wells of a positive control (DMSO instead of test compound; with KRAS mutant::SOS1 GDP mix w/o bead mix; column 24).
As internal control known inhibitors of KRAS mutant::SOS1 interaction can be measured on each compound plate. […]

LOVO cells = assay: LOVO CTG proliferation assay (120 h) (CRC, G13D); assay type: cell-based; details: Homo sapiens, CTG 120 h
In short: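 IC50 comes from a four-parameter fit of CellTiter-Glo viability, expressed as RLU relative to DMSO wells. Compound exposure lasted 120 h in LOVO cells seeded the day before at 1000 cells/well in DMEM with 10% fetal calf serum.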

CYP3A4 = CYP3A4 (Homo sapiens (Human), UniProt P08684); assay: Mechanism based inhibition of CYP3A4 assay (MBI 3A4); assay type: in vitro ADME; details: hydroxy-midazolam formation after 30 min vs 0 min preincubation, 25 uM, human liver microsomes
CYP3A4, sequence (P08684 whole entry): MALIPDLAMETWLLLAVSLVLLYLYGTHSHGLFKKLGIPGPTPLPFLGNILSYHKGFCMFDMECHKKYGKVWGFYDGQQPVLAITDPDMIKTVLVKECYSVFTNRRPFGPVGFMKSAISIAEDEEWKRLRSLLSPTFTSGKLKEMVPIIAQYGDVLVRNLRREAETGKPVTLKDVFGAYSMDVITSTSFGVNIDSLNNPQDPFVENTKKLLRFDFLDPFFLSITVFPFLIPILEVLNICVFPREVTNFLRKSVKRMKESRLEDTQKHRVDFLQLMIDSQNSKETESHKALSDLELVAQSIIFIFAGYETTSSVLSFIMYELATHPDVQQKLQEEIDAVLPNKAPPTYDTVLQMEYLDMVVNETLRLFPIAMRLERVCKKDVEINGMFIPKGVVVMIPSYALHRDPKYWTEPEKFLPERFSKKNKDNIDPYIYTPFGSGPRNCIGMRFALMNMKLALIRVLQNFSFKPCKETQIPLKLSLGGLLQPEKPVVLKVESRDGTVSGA
In short: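 Readout is hydroxy-midazolam formed after 30 min preincubation relative to 0 min, measured by LC/MS-MS after acetonitrile quench. Following preincubation, samples diluted 1:10 and incubated 15 min with midazolam substrate.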

KRAS (G12C)::SOS1, sequence (P01116 other isoform, or with tags, fused parts or gaps G12C/C51S/C80L/C118S): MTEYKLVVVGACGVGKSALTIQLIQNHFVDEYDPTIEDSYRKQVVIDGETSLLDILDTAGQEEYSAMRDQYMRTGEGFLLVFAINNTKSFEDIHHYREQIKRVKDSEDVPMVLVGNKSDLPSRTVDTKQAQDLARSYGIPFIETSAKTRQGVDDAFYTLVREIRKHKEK

## C[C@H](Oc1nc(-c2noc3c2CCC[C@@]32CCCc3sc(N)c(C#N)c32)nc(N2CCN(C)C3(CC3)C2)c1Cl)[C@@H]1C[C@@H](F)CN1C [II-176]
KRAS (G12C)::SOS1
  IC50: 15 nM
KRAS (WT)::SOS1
  IC50: 31 nM
LOVO cells
  IC50: 2680 nM

## C[C@H](Oc1cc(N2CCN(C)C3(CCOC3)C2)nc(-c2noc3c2CCC[C@@]32CCCc3sc(N)c(C#N)c32)n1)[C@@H]1C[C@@H](F)CN1C (stereo partly drawn) [II-151]
KRAS (G12C)::SOS1
  IC50: 8 nM
KRAS (WT)::SOS1
  IC50: 8 nM
LOVO cells
  IC50: 1060 nM

## C[C@H](Oc1cc(-n2ccc(C3(O)COC3)n2)nc(-c2noc3c2CCC[C@@]32CCCc3sc(N)c(C#N)c32)n1)[C@@H]1CCCN1C [II-189]
KRAS (G12C)::SOS1
  IC50: 2 nM
KRAS (WT)::SOS1
  IC50: 4 nM
LOVO cells
  IC50: 39 nM

## C[C@@H]1CN(c2nc(-c3noc4c3CCC[C@@]43CCCc4sc(N)c(C#N)c43)nc(O[C@@H](C)[C@@H]3C[C@@H](F)CN3C)c2F)CC2(CC2)N1 [II-158]
KRAS (G12C)::SOS1
  IC50: 2 nM
KRAS (WT)::SOS1
  IC50: 4 nM
LOVO cells
  IC50: 84 nM

## C[C@H](Oc1cc(-n2ccc(-c3cn(C4CCOCC4)nn3)n2)nc(-c2noc3c2CCC[C@@]32CCCc3sc(N)c(C#N)c32)n1)[C@@H]1CCCN1C [II-210]
KRAS (G12C)::SOS1
  IC50: 2 nM
KRAS (WT)::SOS1
  IC50: 7 nM
LOVO cells
  IC50: 35 nM

## C[C@H](Oc1cc(-n2cncn2)nc(-c2onc3c2CCC[C@@]32CCCc3sc(N)c(C#N)c32)n1)[C@@H]1CCCN1C [I-18]
KRAS (G12C)::SOS1
  IC50: 2 nM
LOVO cells
  IC50: 260 nM
CYP3A4
  MBI 3A4: 58%

## C[C@H](Oc1nc(-c2noc3c2CCC[C@@]32CCCc3sc(N)c(C#N)c32)nc(N2CCNC3(CC3)C2)c1F)[C@@H]1C[C@@H](F)CN1C [II-155]
KRAS (G12C)::SOS1
  IC50: 2 nM
KRAS (WT)::SOS1
  IC50: 4 nM
LOVO cells
  IC50: 107 nM

## C[C@H](Oc1cc(C2=CCNCC2)nc(-c2noc3c2CCC[C@@]32CCCc3sc(N)c(C#N)c32)n1)[C@@H]1CCCN1C [II-164]
KRAS (G12C)::SOS1
  IC50: 2 nM
KRAS (WT)::SOS1
  IC50: 8 nM
LOVO cells
  IC50: 246 nM

## C[C@H](Oc1cc(N2CCNC3(CC3)C2)nc(-c2noc3c2CCC[C@@]32CCCc3sc(N)c(C#N)c32)n1)[C@@H]1C[C@@H](F)CN1C [II-165]
KRAS (G12C)::SOS1
  IC50: 3 nM
KRAS (WT)::SOS1
  IC50: 5 nM
LOVO cells
  IC50: 303 nM

## C[C@H](Oc1cc(-n2cnc(C(=O)N(C)C)c2)nc(-c2noc3c2CCC[C@@]32CCCc3sc(N)c(C#N)c32)n1)[C@@H]1CCCN1C [II-126]
KRAS (G12C)::SOS1
  IC50: 2 nM
LOVO cells
  IC50: 251 nM
CYP3A4
  MBI 3A4: 56%

## C[C@H](Oc1cc(-n2cc3c(n2)CNC3)nc(-c2noc3c2CCC[C@@]32CCCc3sc(N)c(C#N)c32)n1)[C@@H]1CCCN1C [II-168]
KRAS (G12C)::SOS1
  IC50: 2 nM
KRAS (WT)::SOS1
  IC50: 3 nM
LOVO cells
  IC50: 193 nM

## C[C@H](O)Cn1ncc(-c2cc(O[C@@H](C)[C@@H]3CCCN3C)nc(-c3noc4c3CCC[C@@]43CCCc4sc(N)c(C#N)c43)n2)n1 [II-134]
KRAS (G12C)::SOS1
  IC50: 2 nM
LOVO cells
  IC50: 3240 nM
CYP3A4
  MBI 3A4: 76%

## C[C@H](Oc1cc(N2CCNC[C@]23CCOC3)nc(-c2onc3c2CCC[C@@]32CCCc3sc(N)c(C#N)c32)n1)[C@@H]1CCCN1C [I-12]
KRAS (G12C)::SOS1
  IC50: 2 nM
LOVO cells
  IC50: 824 nM
CYP3A4
  MBI 3A4: 56%

## C[C@H](Oc1cc(N2CCNC[C@@]23CCOC3)nc(-c2onc3c2CCC[C@@]32CCCc3sc(N)c(C#N)c32)n1)[C@@H]1CCCN1C [I-13]
KRAS (G12C)::SOS1
  IC50: 7 nM
LOVO cells
  IC50: 1510 nM
CYP3A4
  MBI 3A4: 48%

## CO[C@@H]1C[C@@H]([C@H](C)Oc2cc(N3CCN(C)C4(COC4)C3)nc(-c3noc4c3CCC[C@@]43CCCc4sc(N)c(C#N)c43)n2)N(C)C1 [II-153]
KRAS (G12C)::SOS1
  IC50: 3 nM
LOVO cells
  IC50: 283 nM
CYP3A4
  MBI 3A4: 49%

## C[C@H](Oc1cc(-n2cc(C(=O)N(C)C)nn2)nc(-c2noc3c2CCC[C@@]32CCCc3sc(N)c(C#N)c32)n1)[C@@H]1CCCN1C [II-132]
KRAS (G12C)::SOS1
  IC50: 2 nM
LOVO cells
  IC50: 120 nM
CYP3A4
  MBI 3A4: 70%

## C[C@H](Oc1cc(-c2ccn(C[C@H]3CCOC3)n2)nc(-c2noc3c2CCC[C@@]32CCCc3sc(N)c(C#N)c32)n1)[C@@H]1CCCN1C [II-129]
KRAS (G12C)::SOS1
  IC50: 2 nM
LOVO cells
  IC50: 69 nM
CYP3A4
  MBI 3A4: 74%

## CC(C)N1CCCN(c2cc(-n3ccnc3)nc(-c3noc4c3CCC[C@@]43CCCc4sc(N)c(C#N)c43)n2)[C@@H](C)C1 [II-169]
KRAS (G12C)::SOS1
  IC50: 3 nM
LOVO cells
  IC50: 553 nM
CYP3A4
  MBI 3A4: 66%

## C[C@H](Oc1cc(N2C[C@H](C)N(C)[C@@H](C)C2)nc(-c2noc3c2CCC[C@@]32CCCc3sc(N)c(C#N)c32)n1)[C@@H]1CCCN1C [II-173]
KRAS (G12C)::SOS1
  IC50: 5 nM
LOVO cells
  IC50: 1230 nM
CYP3A4
  MBI 3A4: 82%

## C[C@H](Oc1cc(-c2ccn([C@H]3CCOC3)n2)nc(-c2noc3c2CCC[C@@]32CCCc3sc(N)c(C#N)c32)n1)[C@@H]1CCCN1C [II-127]
KRAS (G12C)::SOS1
  IC50: 2 nM
LOVO cells
  IC50: 131 nM
CYP3A4
  MBI 3A4: 74%

## CC(C)N1CCCN(c2cc(-c3ccn(C)n3)nc(-c3noc4c3CCC[C@@]43CCCc4sc(N)c(C#N)c43)n2)[C@@H](C)C1 [II-170]
KRAS (G12C)::SOS1
  IC50: 3 nM
LOVO cells
  IC50: 270 nM
CYP3A4
  MBI 3A4: 70%

## C[C@H](Oc1cc(-n2cncc3ccnc2-3)nc(-c2onc3c2CCC[C@@]32CCCc3sc(N)c(C#N)c32)n1)[C@@H]1CCCN1C [I-14]
KRAS (G12C)::SOS1
  IC50: 2 nM
LOVO cells
  IC50: 1350 nM
CYP3A4
  MBI 3A4: 83%

## C[C@H](Oc1cc(-c2ccn(Cc3ncco3)n2)nc(-c2noc3c2CCC[C@@]32CCCc3sc(N)c(C#N)c32)n1)[C@@H]1CCCN1C [II-128]
KRAS (G12C)::SOS1
  IC50: 2 nM
LOVO cells
  IC50: 91 nM
CYP3A4
  MBI 3A4: 60%
